Results published in patent US20080096852A1, “USE OF OCULOSURFACE SELECTIVE GLUCOCORTICOID IN THE TREATMENT OF DRY EYE” (Alcon,Inc., priority 2002, published 2008).

What was measured:
[1] = tested on: dry eye induced in New Zealand white rabbits; assay: Tear breakup time (TBUT) in rabbit dry eye model (lacrimal gland inflammation); format: in vivo
Experimental: The ability of low doses of rimexolone to alleviate dry eye conditions was evaluated. […] The experimental procedures are described below. Dry eye was induced in New Zealand white rabbits (approximately 2 kg) by eliciting bilateral inflammation of the lacrimal glands. Tear function was assessed by measuring tear breakup time (“TBUT”) daily for three days, following the induction of dry eye. TBUT was determined by instilling […] into the cul de sac and manually blinking the lids to distribute the fluorescein within the tear film. Under slit lamp observation, the eye was held open and the time to tear film breakup recorded. Efficacy was determined by comparing TBUT relative to pre-inflammation baseline values in drug and vehicle treated animals. In a separate group of animals, susceptibility to desiccation-induced corneal injury was assessed following the induction of lacrimal gland inflammation. Desiccation was initiated by placing the rabbits in a low humidity environment continuously for up to three days. Corneal injury was assessed by determining the uptake of the vital dye, methylene blue. Under general anesthesia, the ocular surface was bathed in a 1% solution of methylene blue for five minutes and then washed. The animals were euthanized, eyes were excised and an 8 mm-diameter section of cornea was isolated and extracted overnight. The concentration of extracted dye was determined spectrophotometrically ([…]). Protection of the cornea is indicated by a lesser uptake of dye in drug treated animals relative to that in vehicle treated rabbits. For both TBUT and corneal injury determinations, dosing (QID) was initiated 24-hours prior to inducing inflammation and was continued for the duration of the study. A second dose-response study was conducted using the procedures described in Example 2 above.

[2] = tested on: desiccation-induced corneal injury in rabbits; assay: Desiccation-induced corneal injury (methylene blue uptake) after lacrimal gland inflammation; format: in vivo, New Zealand white rabbits; conditions: rabbit
Experimental: The ability of low doses of rimexolone to alleviate dry eye conditions was evaluated. […] The experimental procedures are described below. In a separate group of animals, susceptibility to desiccation-induced corneal injury was assessed following the induction of lacrimal gland inflammation. Desiccation was initiated by placing the rabbits in a low humidity environment continuously for up to three days. Corneal injury was assessed by determining the uptake of the vital dye, methylene blue. Under general anesthesia, the ocular surface was bathed in a 1% solution of methylene blue for five minutes and then washed. The animals were euthanized, eyes were excised and an 8 mm-diameter section of cornea was isolated and extracted overnight. The concentration of extracted dye was determined spectrophotometrically ([…]). Protection of the cornea is indicated by a lesser uptake of dye in drug treated animals relative to that in vehicle treated rabbits. For both TBUT and corneal injury determinations, dosing (QID) was initiated 24-hours prior to inducing inflammation and was continued for the duration of the study. A second dose-response study was conducted using the procedures described in Example 2 above.

[3] = tested on: dry eye in patients with autoimmune connective tissue disease; conditions: human patients; suspensions 0.005%, 0.05% and 0.1%; one drop each eye four times per day for six weeks
Source text: Three different suspensions, containing rimexolone at concentrations of 0.005%, 0.05% and 0.1%, respectively, were utilized in the study. A fourth formulation, which was identical to the three rimexolone suspensions except for the elimination of rimexolone, was utilized as a control (i.e., placebo).
The patients in each group administered one drop of the respective formulations to each eye four times per day for six weeks. Following the end of the six week drug administration period, the patients' symptoms were evaluated.

[4] = Example 2, tested 0.005%, 0.01%, 0.05 and 0.1%
[5] = Example 3 (second dose-response study)

For `CCC(=O)[C@@]1(C)[C@H](C)C[C@H]2[C@@H]3CCC4=CC(=O)C=C[C@]4(C)[C@H]3[C@@H](O)C[C@@]21C` [rimexolone], the “TBUT expressed as percent of baseline on day three” value ([1]; Example 2, rimexolone 0.1% suspension, QID, FIG. 1) was 66 % of baseline, the “maximally effective concentration for restoration of TBUT” value [1, 4] was 0.1% and the “maximally effective concentration for restoration of TBUT” value [1, 5] was 0.1%. For the same compound, the “TBUT restored, percent of baseline on day three” value ([1]; Example 3 (second dose-response study), rimexolone 0.1%, FIG. 3) was 71 % of baseline, the “inhibition of desiccation-induced corneal injury (peak efficacy)” value ([2]; Example 2, rimexolone 0.1% suspension, QID, FIG. 2) was 74 % inhibition and the “maximally effective concentration for prevention of desiccation-induced corneal staining” value [2, 4] was 0.1%. The “maximally effective concentration for prevention of desiccation-induced corneal staining” value [2, 5] was 0.1%, the “inhibition of corneal staining” value ([2]; Example 3 (second dose-response study), rimexolone 0.1%, FIG. 4) was 77% and the “dry eye symptoms (discomfort) versus vehicle/placebo” value [3] was “less dry eye symptoms”. The “increases in intraocular pressure” value [3] was “did not exhibit any clinically relevant increases in intraocular pressure”.
